The structures appear in SMILES notation. Where “and” joins values, the source holds several entries; their conditions need not be identical. Equal entries are not always repeated. Calls of active or inactive are those of the source. No rule for the calls is given here.

This passage reports LAP4-GFP fluorescence (kMESF) results from PubChem BioAssay AID2745 (NMMLSC, 2010).

A short description of this assay: concentration series on yeast TOR reporter LAP4 – cell-based, MLPCN hits, flow cytometry, dose response (AID 2745).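 Also: yeast exposed to compound for three hours at 30 degrees.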 To be noted: S. cerevisiae LAP4-GFP reporter, flow cytometry fluorescence; at 33 µM (top of the series). On the technique in general: Flow cytometry measures light scatter and fluorescence of single cells or particles in a stream.

In the case of `Cc1ccc(C(=O)NNC(=S)NC(=O)c2ccco2)cc1`, the LAP4-GFP fluorescence (kMESF) is 7.42 kMESF (inactive). For the compound `Cc1ccc(/C=C2\SC(=S)N(CC3CCCO3)C2=O)o1` (stereo not drawn), the LAP4-GFP fluorescence (kMESF) was 4.89 kMESF (inactive).

Consider `Cc1ccccc1N1C(=O)C(Cl)=C(N2CCN(c3ccccc3)CC2)C1=O`, for which the LAP4-GFP fluorescence (kMESF) was 3.41 kMESF (inactive).

For `CCCCCCCCCCCCCCCC[n+]1cccc2ccccc21`, the LAP4-GFP fluorescence (kMESF) is 1.21 kMESF (inactive). Under `Cc1ccccc1OCCOC(=O)c1ccc(S(=O)(=O)N2CCCC2)cc1` stands 3.13 kMESF (inactive). As for `O=C1C(Cl)=C(Nc2ccccc2O)C(=O)N1CCc1ccccc1`, the LAP4-GFP fluorescence (kMESF) was 5.01 kMESF (inactive). For `N/C(=N\OC(=O)c1ccccc1Cl)c1ccc(Cl)cc1`, the LAP4-GFP fluorescence (kMESF) is 11.3 kMESF (inactive). For `Cc1ccc(/C=C2\SC(=S)N(Cc3ccccc3)C2=O)o1`, the LAP4-GFP fluorescence (kMESF) is 18.1 kMESF (inactive). On to `CC(=O)Oc1ccc(/C=c2\sc3ncnn3c2=O)cc1`, for which the LAP4-GFP fluorescence (kMESF) was 10.1 kMESF (inactive). Under `Cc1ccc(C2=NN(S(C)(=O)=O)C(c3ccc4c(c3)OCO4)C2)cc1` (stereo not drawn) stands 4.78 kMESF (inactive); under `O=C(OCC(=O)N1CCN(C(=O)c2ccco2)CC1)c1cc(-c2ccc(F)cc2)nc2ccccc12`, 9.57 kMESF (inactive) and 4.75 kMESF (inactive); under `CC(=O)NN1C(=O)/C(=C/c2ccc(Br)o2)SC1=S`, 2.52 kMESF (inactive). With `O=C(NC(=S)NNC(=O)[C@H]1C[C@@H]1c1ccccc1)c1cccc(F)c1`, the LAP4-GFP fluorescence (kMESF) is 17.8 kMESF (inactive). For the compound `CCCCc1ccc(/C=C2/C(=O)ON=C2c2ccccc2)s1`, the LAP4-GFP fluorescence (kMESF) is 3.67 kMESF (inactive). Take `COc1ccccc1N=Cc1nc(-c2ccccc2)oc1OC(C)=O`: the LAP4-GFP fluorescence (kMESF) is 8.6 kMESF (inactive). As to `CC(=O)Oc1cccc(N2C(=O)c3cccc4c([N+](=O)[O-])ccc(c34)C2=O)c1`, the LAP4-GFP fluorescence (kMESF) is 5.16 kMESF (inactive). In the case of `COc1ccc(OCC(=O)NNC(=S)NC(=O)C2CCCCC2)cc1`, the LAP4-GFP fluorescence (kMESF) was 14.4 kMESF (inactive).

Turning to `Cc1ccc(NC(=O)CCc2ccccc2)cc1S(=O)(=O)N1CCOCC1`, the LAP4-GFP fluorescence (kMESF) is 3.23 kMESF (inactive). For `CCC(C)/C(C)=N/NC(=O)c1ccc(COc2ccc(Cl)c(C)c2)cc1` (stereo not drawn), the LAP4-GFP fluorescence (kMESF) was 4.7 kMESF (inactive). As for `COc1ccc(N/N=C(\C#N)C(N)=O)cc1`, the LAP4-GFP fluorescence (kMESF) is 13.2 kMESF (inactive).

For `COc1ccc2c(c1)S/C(=C\C(=O)c1ccncc1)N2C`, the LAP4-GFP fluorescence (kMESF) is 4.85 kMESF (inactive). Regarding `COc1cccc2cc(-c3nc4ccccc4o3)c(=O)oc12`, the LAP4-GFP fluorescence (kMESF) is 3.03 kMESF (inactive). Regarding `COc1ccc(NC(=O)/C(C#N)=C/c2ncc([N+](=O)[O-])n2C)c(OC)c1`, the LAP4-GFP fluorescence (kMESF) was 9.76 kMESF (inactive). Under `O=C(Cc1ccc(Cl)cc1)NNC(=S)NC(=O)c1cccs1` stands 9.52 kMESF (inactive); under `O=C(Nc1ccc(N2CCOCC2)cc1)C1CCN(S(=O)(=O)c2ccc3c(c2)OCCO3)CC1`, 3.78 kMESF (inactive). As to `C#CCOc1c(Br)cc(/C=C2/C(=O)ON=C2C)cc1OC`, the LAP4-GFP fluorescence (kMESF) was 12.2 kMESF (inactive). On to `O=C(/C=C/c1cccc(Cl)c1)c1nc2ccccc2[nH]1`, for which the LAP4-GFP fluorescence (kMESF) was 4.71 kMESF (inactive).

For the compound `O=C(Nc1ccccc1)ON=C1CCCC1`, the LAP4-GFP fluorescence (kMESF) is 4.79 kMESF (inactive). For `CCOC(=O)c1c(C)oc2c1c(C(c1cccnc1)N1CCOCC1)c(O)c1ccccc12` (stereo not drawn), the LAP4-GFP fluorescence (kMESF) was 4.07 kMESF (inactive). For `N/C(Cc1ccc(Cl)cc1Cl)=N\OC(=O)c1ccccc1`, the LAP4-GFP fluorescence (kMESF) was 9.94 kMESF (inactive). On to `Cc1ccc(S(=O)(=O)N2CCCC2C(=O)NCc2ccncc2)cc1` (stereo not drawn), for which the LAP4-GFP fluorescence (kMESF) is 4.58 kMESF (inactive).

As to `Oc1c(CN2CCN(c3ccc(F)cc3)CC2)cc(Cl)c2cccnc12`, the LAP4-GFP fluorescence (kMESF) was 13.1 kMESF (inactive). Under `O=C(Oc1oc(-c2ccco2)nc1C=Nc1ccc(Cl)cc1)c1ccco1` stands 8.92 kMESF (inactive); under `Cc1cc(C)nc(S/C=C/C(=O)c2ccccc2)n1`, 11 kMESF (inactive). In the case of `CC(=O)Oc1oc(-c2ccccc2)nc1C=Nc1ccc(N(C)C)cc1`, the LAP4-GFP fluorescence (kMESF) was 7.39 kMESF (inactive).

Take `O=C1NC(=O)N(CCc2ccc(F)cc2)C(=O)/C1=C/c1cccs1`: the LAP4-GFP fluorescence (kMESF) was 9.69 kMESF (inactive).

Regarding `CS(=O)(=O)N1N=C(c2ccccc2)CC1c1ccc2c(c1)OCO2` (stereo not drawn), the LAP4-GFP fluorescence (kMESF) is -20.2 kMESF (inactive).

`C=CCN1C(=O)/C(=C/c2ccc(-c3ccc(F)cc3)o2)SC1=S`: the LAP4-GFP fluorescence (kMESF) is 15 kMESF (inactive). For `Cc1cc(O)c(C(=O)/C=C/c2c(F)c(F)c(F)c(F)c2F)c(=O)o1`, the LAP4-GFP fluorescence (kMESF) was 7 kMESF (inactive).

As for `COc1ccc(NC2=C(Cl)C(=O)N(CCc3ccccc3)C2=O)c(OC)c1`, the LAP4-GFP fluorescence (kMESF) is 3.18 kMESF (inactive). Take `CC1=C(C)/C(=N\OS(=O)(=O)c2ccc(C)cc2)C=CC1=O`: the LAP4-GFP fluorescence (kMESF) was 5.77 kMESF (inactive).

With `C=CCOc1cccc(C(=O)/C=C2/C(=O)Nc3ccccc32)c1`, the LAP4-GFP fluorescence (kMESF) was 8.61 kMESF (inactive).

On to `Cc1c(Br)c(=O)oc2c(Br)c(O)c(O)cc12`, for which the LAP4-GFP fluorescence (kMESF) is 2.43 kMESF (inactive). Consider `Cc1ccc2c(c1)c(/C=C/c1cc[n+](C)cc1)c(C)n2C`, for which the LAP4-GFP fluorescence (kMESF) was 4.11 kMESF (inactive). Consider `Cc1ccc(S(=O)(=O)N2CC(C(=O)O)=CC[C@H]2c2ccc(Cl)cc2)cc1`, for which the LAP4-GFP fluorescence (kMESF) was 4.05 kMESF (inactive).

Take `O=c1c2sc(-c3ccccc3)cc2nc2n1CCC2`: the LAP4-GFP fluorescence (kMESF) was 5.96 kMESF (inactive).

On to `O=C(O)c1ccccc1SC1CC(=O)N(c2ccc3c(c2)OCO3)C1=O` (stereo not drawn), for which the LAP4-GFP fluorescence (kMESF) was 5.3 kMESF (inactive). Consider `CC1(c2ccccc2)ON(c2ccccc2C(F)(F)F)C1=O` (stereo not drawn), for which the LAP4-GFP fluorescence (kMESF) is 5.97 kMESF (inactive). To `O=C1C(Cl)=C(Nc2ccccc2O)C(=O)N1c1ccccc1` belongs 4.81 kMESF (inactive); to `CS(=O)(=O)c1nc(-c2ccccc2)cc(C(F)(F)F)n1`, 16.6 kMESF (inactive). `COC(=O)CCC(=O)OC1(C)C(=O)C2=COC(c3ccc(OC)cc3)=CC2=C(Br)C1=O` (stereo not drawn): the LAP4-GFP fluorescence (kMESF) is 6.01 kMESF (inactive). Consider `O=C(c1ccc(Cl)cc1)N1CCN(c2cccc3[nH]ccc23)CC1`, for which the LAP4-GFP fluorescence (kMESF) was 6.45 kMESF (inactive).

For the compound `O=C(COc1ccccc1)NNC(=S)NC(=O)c1ccccc1`, the LAP4-GFP fluorescence (kMESF) is 4.36 kMESF (inactive). For `O=[N+]([O-])c1ccc(-c2cn3nc(-c4ccccc4)c(-c4ccccc4)nc3n2)cc1`, the LAP4-GFP fluorescence (kMESF) is 9.37 kMESF (inactive). To `C=C1C(O)[C@@H]2O[C@]3(CC[C@H](/C=C/C(C)[C@@H]4CC(C)=CC5(O[C@H](C[C@@](C)(O)C(=O)O)CCC5O)O4)O3)CC[C@H]2O[C@@H]1C(O)CC(C)[C@H]1OC2(CCCCO2)CCC1C` (stereo partly drawn) belongs 11.7 kMESF (inactive); to `COc1cccc(/C=C2\SC(=S)N(CCCC(=O)Nc3ccc(C(=O)O)cc3)C2=O)c1`, 3.71 kMESF (inactive); to `Nc1nc(N)c2nc(CNc3ccc(C(=O)NC(CCC(=O)O)C(=O)O)cc3)cnc2n1` (stereo not drawn), 3.13 kMESF (inactive).

As for `O=C(c1ccc([N+](=O)[O-])o1)N1CCN(c2nc3c(F)cc(F)cc3s2)CC1`, the LAP4-GFP fluorescence (kMESF) was -0.9 kMESF (inactive). Under `CC(C)[C@@]1(c2ccc(Cl)cc2)ON(c2ccccc2C(F)(F)F)C1=O` stands 3.53 kMESF (inactive); under `Cc1ccccc1[C@]1(C)ON(c2ccccc2C(F)(F)F)C1=O`, 3.24 kMESF (inactive).

Consider `CC(C)[C@]1(c2ccc(Cl)cc2)ON(c2ccccc2C(F)(F)F)C1=O`, for which the LAP4-GFP fluorescence (kMESF) is 3.43 kMESF (inactive). `O=C1C=CC(=O)N1c1ccc(OC(F)F)cc1`: the LAP4-GFP fluorescence (kMESF) was 4.2 kMESF (inactive). In the case of `CCn1c(/C=C/c2ccc([N+](=O)[O-])o2)nc2ccccc2c1=O`, the LAP4-GFP fluorescence (kMESF) was -69.5 kMESF (inactive). With `C=CCn1c(C)c(/C=C/c2cc[n+](C)cc2)c2ccccc21`, the LAP4-GFP fluorescence (kMESF) was 10.8 kMESF (inactive).

Consider `Cc1cc2ccccn2c1C(=O)c1ccc([N+](=O)[O-])o1`, for which the LAP4-GFP fluorescence (kMESF) was -3.89 kMESF (inactive). Take `CCOc1ccc(N2C(=O)C(Cl)=C(Nc3ccccc3O)C2=O)cc1`: the LAP4-GFP fluorescence (kMESF) is 5.81 kMESF (inactive). Take `CC(c1ccccc1)N1C(=O)/C(=C/c2ccncc2)SC1=S` (stereo not drawn): the LAP4-GFP fluorescence (kMESF) was 11.3 kMESF (inactive). Turning to `O=C(O)c1ccc(COc2ccccc2C=C2C(=O)c3ccccc3C2=O)cc1`, the LAP4-GFP fluorescence (kMESF) is 4.11 kMESF (inactive).

`COc1ccccc1N1C(=O)c2cccc3c(C(=O)O)ccc(c23)C1=O`: the LAP4-GFP fluorescence (kMESF) is 6.85 kMESF (inactive). On to `O=C1CCN(S(=O)(=O)c2ccccc2)CCN1CCOCc1ccc(F)cc1`, for which the LAP4-GFP fluorescence (kMESF) was 2.43 kMESF (inactive). Take `CCCCc1ccc(NC(=O)CC(C)=O)cc1`: the LAP4-GFP fluorescence (kMESF) is 3.54 kMESF (inactive). On to `COc1ccc(-c2cc3cc(C(=O)O)ccn3c2C(=O)c2ccccc2)cc1`, for which the LAP4-GFP fluorescence (kMESF) is 6.45 kMESF (inactive). Consider `Cc1[nH][nH]c(=O)c1C(c1ccc(-c2ccc(Cl)c(Cl)c2)o1)c1c(C)[nH][nH]c1=O`, for which the LAP4-GFP fluorescence (kMESF) was 6.01 kMESF (inactive). Consider `CCCOc1ccc(C(=O)NNC(=S)NC(=O)c2ccccc2)cc1`, for which the LAP4-GFP fluorescence (kMESF) was 8.22 kMESF (inactive). On to `CC(OC(=O)c1ccco1)C(=O)Nc1nc(-c2ccccc2)cs1` (stereo not drawn), for which the LAP4-GFP fluorescence (kMESF) is 3.33 kMESF (inactive). As for `O=C1c2sc3nc4ccccc4n3c2C(=O)N1c1ccccc1Cl`, the LAP4-GFP fluorescence (kMESF) was 3.64 kMESF (inactive). Turning to `O=C(O)c1cc[c]([Hg][Cl])cc1`, the LAP4-GFP fluorescence (kMESF) is 8.49 kMESF (inactive). For `COc1ccc(Cl)cc1C(Nc1cccnc1)c1ccc2cccnc2c1O` (stereo not drawn), the LAP4-GFP fluorescence (kMESF) is 19.3 kMESF (inactive).
